This is an account of results in patent US10551313B1, “Surface plasmon resonance based mechanical sensing of beating heart cells” (The Florida International University Board of Trustees, priority 2019, dated 2020).

The test system of the assay is living cardiomyocytes. Description: SPR based sensing of beating (cardiac activity) of cardiomyocytes cultured on the SPR sensing surface. The assay is classed as cell-based, rat. As to conditions: injection of 10 μM, SPR resonance angle shift vs time, compared with control group without injection (FIG. 5). From the text: In one particular embodiment, rat cardiomyocytes were isolated from neonatal rat hearts from day one through day three and cultured on the SPR sensing surface 100 of the SPR based sensing system. Subsequently, the spontaneous contractions, expansions, or movements of the rat cardiomyocytes under normal living conditions were monitored by using the SPR based sensing system. In an embodiment, the SPR based sensing system can sense the beating characteristics of the living cardiomyocytes after the living cardiomyocytes is stimulated by an injection of a stimulator such as, for example, adenosine triphosphate (ATP). In another embodiment, the SPR based sensing system can sense the beating characteristics of the living cardiomyocytes after the living cardiomyocytes is inhibited by an injection of an inhibitor such as, for example, blebbistatin.

SMILES strings stand for the structures.

Regarding `Nc1ncnc2c1ncn2[C@@H]1O[C@H](COP(=O)(O)OP(=O)(O)OP(=O)(O)O)[C@@H](O)[C@H]1O` [ATP, adenosine triphosphate], the “cardiac activity (beating frequency) of the cardiomyocytes” value is “higher cardiac activity (faster beats with frequencies higher than the baseline frequencies)”.

Consider `Cc1ccc2c(c1)C(=O)C1(O)CCN(c3ccccc3)C1=N2` (centres unmarked) [blebbistatin], for which the “cardiac activity (beating frequency) of the cardiomyocytes” value was “lower cardiac activity (slower beats with frequencies lower than the baseline frequencies)”.
